In one assay the test system is Rap1 geranylgeranylation. Briefly: Rap1 geranylgeranylation in H-Ras transformed NIH 3T3 cells (Western blot). Format: cell-based, murine. Conditions: H-Ras/3T3 cells. As for the experimental part: (§1) Human MDA-MB-468 and MDA-MB-231 breast cancer cells and murine NIH 3T3 cells were obtained from the ATCC and cultured in DMEM medium. Human SK-Br3 and BT-474 breast cancer cells (ATCC) were cultured in McCoy's 5a medium and Hybri-Care medium, respectively. Mouse embryonic fibroblast (MEF) cells from p27 wild-type and p27 null mice were grown in DMEM. All media were supplemented with 10% fetal calf serum, 10 units/ml penicillin, and 10 μg/ml streptomycin. Subconfluent cells were treated with different concentrations of GGTI, FTI or DMSO vehicle for specific time periods. After treatment, cells were harvested by trypsinization.
To prepare whole cell lysates, cells were trypsinized, washed with phosphate buffered saline (PBS) twice, and lysed in 30 mM Hepes, pH 7.5, 10 mM NaCl, 5 mM MgCl2, 25 mM NaF, 1 mM EGTA, 1% Triton-X-100, 10% glycerol, protease inhibitor cocktail, 2 mM PMSF, 2 mM Na3VO4, and 6.4 mg/ml p-nitrophenylphosphate. Lysates were cleared by centrifugation at 12,000×g for 15 min, and the supernatants were collected as whole cell extracts. The protein concentration was determined by the Bradford assay. […] Select bands were quantified using AlphaEaseFC densitometry software (AlphaInnotech, San Leandro, Calif.). […]
Background: In western blotting, separated proteins are transferred to a membrane and probed.

The next assay concerns p27 null MEFs. Kind of assay: Trypan Blue exclusion assay in p27 null MEFs. Format: cell-based, mouse. The settings on record: 50 μM, 72 h. As for the experimental part: as §1
(§2) Adherent cells were harvested by trypsinization and diluted with 0.4% Trypan Blue dye and counted on a hemacytometer. Cells excluding the dye were scored as live cells, whereas cells absorbing the dye were scored as dead cells. Cell proliferation was determined by dividing the number of live cells in the treated sample by the number of live cells in the control, and the degree of cell death was expressed as percentage of dead cells of the total cell number.

For assay [1], the system named is MDA-MB-468 breast cancer cells. Briefly: Cell cycle analysis in MDA-MB-468 cells. Type of assay: cell-based, human. The settings on record: 50 μM, control 51%. As for the experimental part:
Cell cycle analysis based on DNA content was performed as described previously. Liang, J., et al., PKB/Akt phosphorylates p27, impairs nuclear import of p27 and opposes p27-mediated G1 arrest, Nat Med 8:1153-60 (2002). At each time point, cells were harvested, counted, and washed twice with PBS. Cells (2-3×10^6) were suspended in 0.5 ml PBS, fixed in 5 ml of 70% ethanol overnight at −20° C., centrifuged, re-suspended again in 1 ml of propidium iodide staining solution (50 μg/ml propidium iodide, 100 units/ml RNase A and 1 mg/ml of glucose in PBS), and incubated at room temperature for 30 min. The cells were then analyzed for cell cycle distribution using FACScan (BD Biosciences) and ModFit LT cell cycle analysis software (Verity Software, Topsham, Me.).

Assay [2] deals with MDA-MB-468 breast cancer cells. Briefly: Trypan Blue exclusion assay (proliferation, cell death) in MDA-MB-468 cells. Format: cell-based, human. The protocol:
as §1
Pre-designed siRNA to p27 (Cat #118714) and the negative control (Cat #4611) were purchased from Ambion (Austin, Tex.). Twenty-four hours before transfection, MDA-MB-468 cells were plated onto twelve-well plates in fresh DMEM medium containing 10% FBS and no antibiotics. Transient transfection of siRNA was carried out using Oligofectamine reagent (Invitrogen, Carlsbad, Calif.), following the manufacturer's instructions. In brief, 5 nM of p27 siRNA or control siRNA were mixed with Opti-MEM medium (Invitrogen) in such a way so that the total volume went to 90 μl, and then complexed with a mixture of 2 μl of Oligofectamine and 8 μl Opti-MEM; the total volume of RNA:Oligofectamine complex was 100 μl. The RNA:Oligofectamine complex was then incubated for 20 min at room temperature before adding to the cells. Before transfection, the old medium was discarded, cells were washed once with fresh Opti-MEM and 400 μl of fresh Opti-MEM placed into each well before adding the RNA:Oligofectamine complex to each well. The final diluted volume on each well was 500 μl. After 8 h, 500 μl DMEM containing 30% FBS was added to each well and cells were further incubated for 40 h.
as §2

A further assay relates to p27. Kind of assay: Immunofluorescence of p27 in MDA-MB-468 cells. Type of assay: cell-based, human. Conditions: 50 μM, 48 h. As for the experimental part:
MDA-MB-468 cells were plated on a glass coverslip and treated with 50 μM GGTI-2417 or DMSO as a control for 48 h. Medium was aspirated and the cells were washed twice with ice-cold sterile DPBS solution (Invitrogen, Carlsbad, Calif.), fixed with 4% paraformaldehyde at room temperature for 15 min, and then treated with 1% Nonidet P-40 for 30 min at room temperature. After blocking with 5% bovine serum albumin for 30 min at room temperature, cells were incubated with anti-p27 antibody (1:500) at room temperature for 1 h. After washing three times with DPBS solution, cells were incubated with FITC-conjugated secondary antibody (1:1000) for 1 h at room temperature. Cells were then washed three times with sterile DPBS solution, mounted using Vectashield mounting reagent (Vector Laboratories, Inc., Burlingame, Calif.) containing 4′,6′-diamidino-2-phenylindole (DAPI) for nuclear visualization, and analyzed using a Zeiss Axiovert Z-1 Imager microscope (Carl Zeiss, Oberkochen, Germany) at […]. Images were analyzed using ImagePro Plus 6.2 (Media Cybernetics, Bethesda, Md.).

For the next assay, the system named is p27 wild-type MEFs. Briefly: Trypan Blue exclusion assay in p27 wild-type MEFs. Type of assay: cell-based, mouse. Conditions: 50 μM, 72 h, p27 wt MEFs. As for the experimental part:
as §1, §2

A value given as a limit tells only on which side of the number the result lay.

For the compound `COC(=O)[C@H](CC(C)C)NC(=O)N1CCN(Cc2nc[nH]c2C)C(=O)[C@@H]1Cc1ccccc1` [GGTI-2417], the “selectivity for inhibition of cellular GGTase I compared to FTase” value in the assay on Rap1 geranylgeranylation is more than 125 fold. In addition, the IC50 is 400 ± 100 nM in the assay with Rap1 geranylgeranylation (48 h, read-out: IC50, inhibition of Rap1 geranylgeranylation) and approximately 4000 nM in assay [2] (MDA-MB-468, 48 h, read-out: IC50, inhibition of cell proliferation). In addition, the inhibition of proliferation in the assay on p27 null MEFs (MEFs lacking p27) turned out to be 61.6±8.1%; with p27 wild-type MEFs, 89.0±3.1%. The cell death entry with p27 null MEFs (p27 null MEFs, basal 27.5±2.1%) is given as “did not increase the number of dead cells”; in the assay with p27 wild-type MEFs (vehicle 22.4±7.2%), 53.4±7.0%. In assay [1], the “fraction of cells in G0/G1” value was found to be 78%. For the same compound, the “tumor cell death in the presence of p27 siRNA” value in assay [2] (5 nM p27 siRNA, 50 μM GGTI-2417 or 1 μM taxol) was “unable to induce tumor cell death”. In assay [2] (50 μM, absence of p27 siRNA, vehicle 10.3%), this compound came in with a tumor cell death of 37.2%. In the assay with p27, the “cytosolic p27 levels” value was “not affected significantly”. The “increase of nuclear levels of p27” value in the assay on p27 came to 6 fold.

The values are drawn from US10946012B2, “Methods for inducing tumor regression, inhibiting tumor growth, and inducing apoptosis in breast tumors with geranylgeranyltransferase I inhibitors” (H. Lee Moffitt Cancer Center and Research Institute, Inc., priority 2009, dated 2021).
